# From PMC8706970, “A Novel C1q Domain-Containing Protein Isolated from the Mollusk Modiolus kurilensis Recognizing Glycans Enriched with Acidic Galactans and Mannans” (Marine Drugs, 2021)
# Test system: MkC1qDC
# Assay: hemagglutination inhibition, fixed human group […] erythrocytes, two-fold dilutions
# Type: cell-based, Modiolus kurilensis
# Conditions: Ca2+-dependent lectin activity, 0.1 mg/mL protein, titer decline by one two-fold dilution, also given as 1.16 mg/mL
smiles,measurement,setting,value
O=C(O)[C@H]1OC(O)[C@H](O)[C@@H](O)[C@@H]1O (stereo partly drawn) [D-glucuronic acid],IC50,also printed as 1.46 mg/mL,7.5 mM
OC[C@H]1OC(O)[C@H](O)[C@@H](O)[C@H]1O (stereo partly drawn) [D-galactose],IC50,also printed as 5.40 mg/mL,30 mM
CC(=O)N[C@H]1[C@H]([C@H](O)[C@H](O)CO)OC(O)(C(=O)O)C[C@@H]1O (some centres unmarked) [N-acetylneuraminic (sialic) acid],IC50,,3.75 mM
OC[C@H]1O[C@@H](O[C@H]2[C@H](O)[C@@H](O)C(O)O[C@@H]2CO)[C@H](O)[C@@H](O)[C@H]1O (stereo partly drawn) [D-lactose],IC50,also printed as 5.13 mg/mL,15 mM
OC[C@@H]1OC(O)[C@@H](O)[C@@H](O)[C@@H]1O (stereo partly drawn) [L-gulose],IC50,also printed as 1.35 mg/mL,7.5 mM
OC[C@H]1O[C@H](O[C@@H]2C(O)O[C@H](CO)[C@@H](O)[C@@H]2O)[C@@H](O)[C@@H](O)[C@@H]1O (stereo partly drawn) [2α- mannobiose],IC50,also printed as 10.26 mg/mL,30 mM
OC[C@H]1OC(O)C[C@@H](O)[C@H]1O (stereo partly drawn) [2-deoxy-D-galactose],IC50,also printed as 2.46 mg/mL,15 mM
O=C(O)[C@H]1OC(O)[C@H](O)[C@@H](O)[C@H]1O (stereo partly drawn) [D-galacturonic acid],IC50,also printed as 1.46 mg/mL,7.5 mM
